Laboratory results: patent publication US20220257774A1, “AROMATIC AMINE AR AHD BET TARGETING PROTEIN DEGRADATION CHIMERA COMPOUND AND USE” (HINOVA PHARMACEUTICALS INC., priority 2019, published 2022)

What follows are molecules tested on LNCaP/AR cells (assay: Inhibition of the proliferation of LNCap/AR cells (CCK-8)). Settings: 144 h; LNCaP/AR cells, 6 days culture, CCK-8; read-out: LNCap/AR IC50.
Format: cell-based
Description: 1. Biological Assay of the Inhibition on the Proliferation of LNCap/AR Cells
(1) Experimental materials and instruments: LNCaP/AR cell line and 22RV1 cell line (provided by Sichuan Kangcheng Biotechnology Co., Ltd.) Fetal bovine serum FBS (Gibco, Cat. No. 10099-141) 0.01M PBS (Biosharp, Cat. No. 162262) RIPM1640 medium (Hyclone, Cat. No. 308090.01) Penicillin-Streptomycin (Hyclone, Cat. No. SV30010) Cell counting kit-8 (Signalway Antibody, Cat. No. CP002) DMSO (Sigma, Cat. No. D5879) Centrifuge Tube, 15 ml (Excell Bio, Cat. No. CS015-0001) Cell Culture Dish, (Excell Bio, Cat. No. CS016-0128) 96-well cell culture plate (Corning, Cat. No. 3599) Microplate reader (Thermo Multiskan MK3 type)
(2) Experimental Methods:
a. Preparation of Buffer Cell culture medium: RIPM1640 medium, 10% FBS, 1% Pen Strep: PBS buffer: PBS powder was dissolved in 2 L of ultrapure water and sterilized. b. Experimental Procedures 1) LNCaP/AR cells were subcultured in cell culture media, and then the cells in good growth condition were seeded in a 96-well plate at 80 μL/well (1000 cells/well), and cultured overnight in a 37° C., 5% CO2 cell incubator. 2) The drug was prepared into a 10 mM stock solution with dimethyl sulfoxide (DMSO). Prior to use, the stock solution was diluted in a ratio of […] with DMSO, and then diluted at a 3-fold gradient to obtain 9 serial concentrations. Then, each concentration of compound was further diluted in a ratio of 1:200 with the culture medium (to ensure that the DMSO concentration in the culture system was 0.1%), and two wells were set for each concentration. 20 μL of the diluted compound solution was added to the well of the cell culture (with a final concentration of 10 μM, 3.3 μM, 1.1 μM . . . ), and then the plate was gently tapped to thoroughly mix. In addition, the experiment included 3 negative control wells only containing cells and 3 blank control wells only containing culture medium (6 wells were each added with DMSO diluted in a ratio of 1:200 with 20 μL of culture medium). c. Result Detection: 1) After culturing for 6 days, 10 μL of CCK-8 was added to each well, and the plate was further incubated for 1 h in a 37° C., 5% CO2 cell incubator. 2) The absorbance (OD value) was measured at 450 nm with a multifunctional microplate reader. 3) The data was analyzed by the Dose-response-inhibition equation in the software GraphPad Prism5, and the IC50 value was obtained. 2. Biological assay of the inhibition on the proliferation of other drug-resistant prostate cancer cells
Work on `Cc1ccc(-c2c(C)noc2C)cc1N(CCCCCOCC(=O)Nc1cccc2c1CN(C1CCC(=O)NC1=O)C2=O)c1ccc(Br)cc1` (centres unmarked) [Compound 27, 2-((5-((4-Bromophenyl)(5-(3,5-Dimethylisoxazol-4-yl)-2-methylphenyl)amino)pentyl)oxy)-N-(2-(2,6-dioxopiperidin-3-yl)-1-oxoisoindolin-4-yl)acetamide] yielded an IC50 of 501 to 2000 nM. For `Cc1ccc(-c2c(C)noc2C)cc1N(CCC1CCN(c2ccc3c(c2)C(=O)N(C2CCC(=O)NC2=O)C3=O)CC1)c1ccc(C2(C#N)CC2)cc1` (centres unmarked) [Compound 28, 1-(4-((5-(3,5-Dimethylisoxazol-4-yl)-2-methylphenyl)(2-(1-(2-(2,6-dioxopiperidin-3-yl)-1,3-dioxoisoindolin-5-yl)piperidin-4-yl)ethyl)amino)phenyl)cyclopropane-1-carbonitrile], the IC50 was 101 to 500 nM. In the case of `Cc1ccc(-c2c(C)noc2C)cc1N(CCC1CCN(c2cc3c(cc2F)C(=O)N(C2CCC(=O)NC2=O)C3=O)CC1)c1ccc(C2(C#N)CC2)cc1` (centres unmarked) [Compound 29, 1-(4-((5-(3,5-Dimethylisoxazol-4-yl)-2-methylphenyl)(2-(1-(2-(2,6-dioxopiperidin-3-yl)-6-fluoro-1,3-dioxoisoindolin-5-yl)piperidin-4-yl)ethyl)amino)phenyl)cyclopropane-1-carbonitrile], the IC50 is reported as greater than 2000 nM. `Cc1ccc(-c2c(C)noc2C)cc1N(CCCC1CCN(c2ccc3c(c2)C(=O)N(C2CCC(=O)NC2=O)C3=O)CC1)c1ccc(C2(C#N)CC2)cc1` (centres unmarked) [Compound 30, 1-(4-((5-(3,5-Dimethylisoxazol-4-yl)-2-methylphenyl)(3-(1-(2-(2,6-dioxopiperidin-3-yl)-1,3-dioxoisoindolin-5-yl)piperidin-4-yl)propyl)amino)phenyl)cyclopropane-1-nitrile] showed an IC50 of 101 to 500 nM. `Cc1ccc(-c2c(C)noc2C)cc1N(CCCCCNc1ccc2c(c1)CN(C1CCC(=O)NC1=O)C2=O)c1ccc(-c2c(C)noc2C)cc1` (centres unmarked) [Compound 33, 3-(5-((5-((5-(3,5-Dimethylisoxazol-4-yl)-2-methylphenyl) (4-(3,5-dimethylisoxazol-4-yl)phenyl)amino)pentyl)amino)-1-oxoisoindolin-2-yl)piperidine-2,6-dione] showed an IC50 of 101 to 500 nM. `CC(=O)O[C@@H]1C[C@@H](C(=O)N[C@@H](C)c2ccc(-c3scnc3C)cc2)N(C(=O)[C@@H](NC(=O)CN2CCN(CCN(c3ccc(-n4ccnc4)c(Br)c3)c3cc(-c4c(C)noc4C)ccc3C)CC2)C(C)(C)C)C1` [Compound 47, (3R,5S)-1-((S)-2-(2-(4-(2-((3-bromo-4-(1H-imidazol-1-yl)phenyl)(5-(3,5-dimethylisoxazol-4-yl)-2-methylphenyl)amino)ethyl)piperazin-1-yl)acetamido)-3,3-dimethylbutanol)-5-((S)-1-(4-methylthiazol-5-yl)phenyl)ethyl)carbamoyl)pyrrolidine-3-yl acetate] showed an IC50 of 501 to 2000 nM. Molecule `CC(=O)O[C@@H]1C[C@@H](C(=O)N[C@@H](C)c2ccc(-c3scnc3C)cc2)N(C(=O)[C@@H](NC(=O)COCCCCCN(c2ccc(-n3ccnc3)c(Br)c2)c2cc(-c3c(C)noc3C)cnc2C)C(C)(C)C)C1` [Compound 48, (3R,5S)-1-((S)-2-(2-((5-((3-bromo-4-(1H-imidazol-1-yl)phenyl)(5-(3,5-dimethylisoxazol-4-yl)-2-methylpyridin-3-yl)amino)pentyl)oxy)acetamido)-3,3-dimethylbutanol)-5-((S)-1-(4-methylthiazol-5-yl)phenyl)ethyl)carbamoyl)pyrrolidine-3-yl acetate] has an IC50 of 501 to 2000 nM. Work on `Cc1ncc(-c2c(C)noc2C)cc1N(CCCCCOCC(=O)N[C@H](C(=O)N1C[C@H](O)C[C@H]1C(=O)N[C@@H](C)c1ccc(-c2scnc2C)cc1)C(C)(C)C)c1ccc(-n2ccnc2)c(Br)c1` [Compound 49, (2S,4R)-1-((S)-2-(2-((5-((3-bromo-4-(1H-imidazol-1-yl)phenyl)(5-(3,5-dimethylisoxazol-4-yl)-2-methylpyridin-3-yl)amino)pentyl)oxy)acetamido)-3,3-dimethylbutyryl)-4-hydroxy-N—((S)-1-(4-(4-methylthiazol-5-yl)phenyl)ethyl)pyrrolidine-2-formamide] yielded an IC50 of 501 to 2000 nM. For `CC(=O)O[C@@H]1C[C@@H](C(=O)N[C@@H](C)c2ccc(-c3scnc3C)cc2)N(C(=O)[C@@H](NC(=O)COCCN2CCC(CN(c3ccc(-n4ccnc4)c(Br)c3)c3cc(-c4c(C)noc4C)ccc3C)CC2)C(C)(C)C)C1` [Compound 50, (3R,5S)-1-((S)-2-(2-(4-((3-bromo-4-(1H-imidazol-1-yl)phenyl) (5-(3,5-dimethylisoxazol-4-yl)-2-methylphenyl)amino)methyl)piperidin-1-yl)ethoxy)acetamido)-3,3-dimethylbutyryl)-5-((S)-1-(4-methylthiazol-5-yl)phenyl)ethyl)carbamoyl)pyrrolidine-3-yl acetate], the IC50 was 501 to 2000 nM. `CC(=O)O[C@@H]1C[C@@H](C(=O)N[C@@H](C)c2ccc(-c3scnc3C)cc2)N(C(=O)[C@@H](NC(=O)COCCN2CC(CN(c3ccc(-n4ccnc4)c(Br)c3)c3cc(-c4c(C)noc4C)ccc3C)C2)C(C)(C)C)C1` [Compound 51, (3R,5S)-1-((S)-2-(2-(3-((3-bromo-4-(1H-imidazol-1-yl)phenyl) (5-(3,5-dimethylisoxazol-4-yl)-2-methylphenyl)amino)methyl)azetidine-1-yl)ethoxy)acetamido)-3,3-dimethylbutanol)-5-((S)-(4-methylthiazol-5-yl)phenyl)ethyl)carbamoyl)pyrrolidine-3-yl acetate] gave an IC50 greater than 2000 nM. With `Cc1cn(-c2ccc(N(CCCCCOCC(=O)N[C@H](C(=O)N3C[C@H](O)C[C@H]3C(=O)N[C@@H](C)c3ccc(-c4scnc4C)cc3)C(C)(C)C)c3cc(-c4c(C)noc4C)ccc3C)cc2Br)cn1` [Compound 53] the IC50 was less than 100 nM. `CC(=O)O[C@@H]1C[C@@H](C(=O)N[C@@H](C)c2ccc(-c3scnc3C)cc2)N(C(=O)[C@@H](NC(=O)COCCOCCN(c2ccc(-n3ccnc3)c(Br)c2)c2cc(-c3c(C)noc3C)ccc2C)C(C)(C)C)C1` [Compound 54] gave an IC50 greater than 2000 nM. `Cc1ccc(-c2c(C)noc2C)cc1N(CCOCCOCC(=O)N[C@H](C(=O)N1C[C@H](O)C[C@H]1C(=O)N[C@@H](C)c1ccc(-c2scnc2C)cc1)C(C)(C)C)c1ccc(-n2ccnc2)c(Br)c1` [Compound 55] was tested, and the IC50 was greater than 2000 nM.

Same assay, conditions: LNCaP/AR cells, 6 days culture, CCK-8; read-out: LNCap/AR IC50
`CC(=O)O[C@@H]1C[C@@H](C(=O)N[C@@H](C)c2ccc(-c3scnc3C)cc2)N(C(=O)[C@@H](NC(=O)COCCCCCN(c2ccc(-n3cnc(C)c3)c(Br)c2)c2cc(-c3c(C)noc3C)ccc2C)C(C)(C)C)C1` [Compound 52, (3R,5S)-1-((S)-2-(2-((5-((3-bromo-4-(4-methy-1H-imidazol-1-yl)phenyl)(5-(3,5-dimethylisoxazol-4-yl)-2-methylphenyl)amino)pentyl)oxy)acetamido)-3,3-dimethylbutyryl)-5-((S)-1-(4-methylthiazol-5-yl)phenyl)ethyl)carbamoyl)pyrrolidine-3-yl acetate] showed an IC50 of 101 to 500 nM. `COc1ccc(N(CCCCCOCC(=O)N[C@H](C(=O)N2C[C@H](OC(C)=O)C[C@H]2C(=O)N[C@@H](C)c2ccc(-c3scnc3C)cc2)C(C)(C)C)c2cc(-c3c(C)noc3C)ccc2C)cc1` [Compound 56, (3R,5S)-1-((S)-2-(2-((5-((5-(3,5-dimethylisoxazol-4-yl)-2-methylphenyl)(4-methoxyphenyl)amino)pentyl)oxy)acetamido)-3,3-dimethylbutyryl)-5-((S)-1-(4-(4-methylthiazol-5-yl)phenyl)ethyl)carbamoyl)pyrrolidine-3-yl acetate] was tested, and the IC50 was 101 to 500 nM.

Same assay, conditions: LNCaP/AR, 144 h, read-out: LNCap/AR IC50
For `CC(=O)O[C@@H]1C[C@@H](C(=O)N[C@@H](C)c2ccc(-c3scnc3C)cc2)N(C(=O)[C@@H](NC(=O)COCC#CCN(c2ccc(-n3ccnc3)cc2)c2cc(-c3c(C)noc3C)ccc2C)C(C)(C)C)C1` [Compound 46, (3R,5S)-1-((S)-2-(2-((4-((4-(1H-imidazol-1-yl)phenyl)(5-(3,5-dimethylisoxazol-4-yl)-2-methylphenyl)amino)but-2-yn-1-yl)oxy)acetamido)-3,3-dimethylbutanol)-5-((S)-1-(4-methylthiazol-5-yl)phenyl)ethyl)carbamoyl)pyrrolidine-3-yl acetate], the IC50 was greater than 2000 nM. `Cc1ccc(-c2c(C)noc2C)cc1N(CCCCCOCC(=O)N[C@H](C(=O)N1C[C@H](O)C[C@H]1C(=O)N[C@@H](C)c1ccc(-c2scnc2C)cc1)C(C)(C)C)c1ccc(C#N)c(Cl)c1` [Compound 58] showed an IC50 of 101 to 500 nM.
